In patent US20090117192A1, “COMPOSITION FOR TRANSDERMAL ABSORPTION AND FORMULATION COMPRISING A POLYMERIC MATRIX FORMED THEREFROM” (priority 2007, published 2009):
Where two headings read alike, the source gives them in different places.

Test: Meloxicam solubility enhancement test of sodium methoxide (saturation, HPLC)
Protocol: Meloxicam was mixed with an equivalent amount of sodium methoxide, and the mixture was dissolved to the saturation point in distilled water, methanol, ethylacetate, tetrahydrofuran or N-methylpyrrolidone. The resulting solution was subjected to high performance liquid chromatography to measure the meloxicam solubility.
Only Meloxicam without using sodium methoxide was dissolved to the saturation point in distilled water, methanol, ethylacetate, tetrahydrofuran or N-methylpyrrolidone, and then the resulting solution was subjected to high performance liquid chromatography to measure the meloxica solubility.

Cc1cnc(NC(=O)C2=C(O)c3ccccc3S(=O)(=O)N2C)s1 [Comparative Example 5, Meloxicam]
Meloxicam solubility: 92.7 mg/mL

Cc1cnc(NC(=O)C2=C(O)c3ccccc3S(=O)(=O)N2C)s1 [Comparative Example 4, Meloxicam]
Meloxicam solubility: 21.91 mg/mL

Cc1cnc(NC(=O)C2=C(O)c3ccccc3S(=O)(=O)N2C)s1 [Comparative Example 3, Meloxicam]
Meloxicam solubility (saturation, HPLC): 1.28 mg/mL

Cc1cnc(NC(=O)C2=C(O)c3ccccc3S(=O)(=O)N2C)s1 [Comparative Example 1, Meloxicam]
Meloxicam solubility: 0.06 mg/mL

Cc1cnc(NC(=O)C2=C(O)c3ccccc3S(=O)(=O)N2C)s1 [Comparative Example 2, Meloxicam]
Meloxicam solubility: 0.43 mg/mL
